Structures are written as SMILES.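 Briefly, cells in 96-well plates were exposed to five compound concentrations for 48 h, and endpoints were estimated by linear interpolation. GI50: concentration for 50% inhibition of growth.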 Activity calls are given as the source filed them. No stated cut-off is given here; in the data, active = GI50 up to about 1.1 µM and inactive = higher.

Data on twelve compounds can be found in ChEMBL document CHEMBL1201862, “PubChem BioAssay data set” (2004).

Test systems include UACC-257; SF-268; NCI/ADR-RES; NCI-H23; IGROV-1; HCT-15; BT-549; HCT-116; SNB-19; SK-OV-3; RPMI-8226; RXF 393; EKVX; TK-10; NCI-H460; OVCAR-3; NCI-H522; A498; DU-145.
What all share (experiment): NCI tumour cell line growth inhibition, 48 h

As for `Cc1cc2c(nn1)CCc1c-2no[n+]1[O-]`, the GI50 in the test on UACC-257 is > 100 µM (inactive); in the test on SF-268, > 100 µM (inactive); in the test with NCI/ADR-RES, > 100 µM (inactive); in the test on NCI-H23, > 100 µM (inactive); with IGROV-1 it was > 100 µM (inactive); in the test on HCT-15, greater than 100 µM. Moreover, the GI50 in the test on BT-549 is > 100 µM (inactive); in the test with HCT-116, > 100 µM (inactive); in the test on SNB-19, > 100 µM (inactive); in the test with SK-OV-3, > 100 µM (inactive); in the test with RPMI-8226 it was > 100 µM (inactive); with RXF 393, 22.1 µM (inactive). The GI50 with EKVX, with TK-10, with NCI-H460, in the test on OVCAR-3 and in the test with NCI-H522 was > 100 µM (inactive) throughout.
Regarding `O=c1cc(NNc2ccc3ccccc3c2)[nH]c(=S)[nH]1`, the GI50 with UACC-257 was > 100 µM (inactive); in the test with SF-268, 21.1 µM (inactive); with NCI/ADR-RES it was > 100 µM (inactive); in the test with NCI-H23, > 100 µM (inactive); in the test on IGROV-1, 22.5 µM (inactive); in the test on HCT-15, 14.5 µM. Besides, the GI50 with BT-549 was 39.6 µM (inactive); with HCT-116, 39.9 µM (inactive); with SNB-19, 94.8 µM (inactive); in the test on A498 it was > 100 µM (inactive); in the test with RPMI-8226, 22.2 µM (inactive); with DU-145 it was > 100 µM (inactive). For the same compound, the GI50 in the test on EKVX is > 100 µM (inactive); in the test with TK-10, > 100 µM (inactive); in the test with NCI-H460, 40.9 µM (inactive); with OVCAR-3 it was 19.3 µM (inactive).
Take `Cc1ccc(S(=O)(=O)ON2C(=O)c3cccc4cc([N+](=O)[O-])cc(c34)C2=O)cc1`: the GI50 in the test on UACC-257 is 66.2 µM (inactive); in the test with SF-268, 79.3 µM (inactive); in the test with NCI/ADR-RES, > 100 µM (inactive); in the test on NCI-H23, > 100 µM (inactive); in the test on IGROV-1, 40.6 µM (inactive); in the test on HCT-15, 71 µM. The GI50 was 27 µM (inactive) in the test on BT-549; 45.3 µM (inactive) in the test with HCT-116; 57.8 µM (inactive) in the test on SNB-19; 38.9 µM (inactive) with SK-OV-3; > 100 µM (inactive) in the test on RPMI-8226; 89.1 µM (inactive) in the test on DU-145. For the same compound, the GI50 in the test with RXF 393 is 44.3 µM (inactive); with EKVX, > 100 µM (inactive); in the test on TK-10, 42.9 µM (inactive); in the test on NCI-H460 it was 19.6 µM (inactive); in the test on OVCAR-3, 35.3 µM (inactive); in the test with NCI-H522 it was 56.2 µM (inactive).
`N#C[C@H](c1nc2ccccc2s1)c1nc2ccccc2nc1Cl`: the GI50 in the test on UACC-257 is 14.7 µM (inactive); with NCI/ADR-RES it was > 100 µM (inactive); in the test on NCI-H23 it was 15.3 µM (inactive); with IGROV-1, > 100 µM (inactive); in the test with HCT-15, 4.04 µM; in the test on BT-549 it was 4.79 µM (inactive). The GI50 in the test with HCT-116 was > 100 µM (inactive); with SNB-19 it was > 100 µM (inactive); with SK-OV-3, 23.6 µM (inactive); with A498, > 100 µM (inactive); with RPMI-8226 it was > 100 µM (inactive); in the test on RXF 393 it was 13.4 µM (inactive). Also, the GI50 in the test with EKVX was > 100 µM (inactive); with NCI-H460, 18.6 µM (inactive); in the test on OVCAR-3, 17.2 µM (inactive); with NCI-H522 it was 57.3 µM (inactive).
As for `OC(c1ccc(-c2ccccc2)cc1)(c1ccc(-c2ccccc2)cc1)c1ccc(-c2ccccc2)cc1`, the GI50 with UACC-257 is > 100 µM (inactive); in the test with SF-268, > 100 µM (inactive); in the test with NCI/ADR-RES it was > 100 µM (inactive); in the test on NCI-H23 it was > 100 µM (inactive); in the test on IGROV-1 it was > 100 µM (inactive); with HCT-15 it was 4.56 µM. Further, the GI50 with BT-549, with HCT-116, in the test with SNB-19, in the test on SK-OV-3, with RPMI-8226 and in the test with DU-145 was > 100 µM (inactive) in each case. For the same compound, the GI50 with RXF 393, in the test on EKVX, with TK-10, in the test with NCI-H460, in the test on OVCAR-3 and with NCI-H522 was > 100 µM (inactive) throughout.
On to `COC(=O)C(/C(=N/NC(N)=O)C(=O)Nc1ccc(C)cc1)c1nc2ccc([N+](=O)[O-])cc2nc1O` (centres undefined), for which the GI50 with UACC-257 was > 10 µM (inactive); in the test with SF-268 it was > 100 µM (inactive); with NCI/ADR-RES, > 100 µM (inactive); in the test with IGROV-1, > 100 µM (inactive); in the test on HCT-15 it was 37.6 µM; in the test with BT-549, > 100 µM (inactive). Besides, the GI50 is > 100 µM (inactive) in the test with HCT-116; > 100 µM (inactive) in the test on SK-OV-3; > 100 µM (inactive) in the test with A498; > 100 µM (inactive) in the test with RPMI-8226; > 100 µM (inactive) with RXF 393; 56.1 µM (inactive) in the test on EKVX. Moreover, the GI50 in the test with TK-10 was > 100 µM (inactive); in the test on NCI-H460 it was 52.2 µM (inactive); in the test on OVCAR-3, > 100 µM (inactive); with NCI-H522, 27.2 µM (inactive).
For the compound `O=C(/C=C/c1cc(F)ccc1F)OCCc1ccccc1`, the GI50 in the test with UACC-257 was > 100 µM (inactive); in the test on SF-268, > 100 µM (inactive); with NCI/ADR-RES, > 100 µM (inactive); in the test on NCI-H23, > 100 µM (inactive); with IGROV-1, > 100 µM (inactive); in the test on HCT-15, 35.6 µM. For the same compound, the GI50 is > 100 µM (inactive) with BT-549; > 100 µM (inactive) in the test with HCT-116; > 100 µM (inactive) in the test with SNB-19; > 100 µM (inactive) in the test on A498; 47.3 µM (inactive) with RPMI-8226; 91.6 µM (inactive) with RXF 393. Besides, the GI50 in the test on EKVX, with TK-10 and with NCI-H522 was > 100 µM (inactive) each time.
With `COc1ccc(/C(C)=N/OC(=O)c2c(-c3ccccc3Cl)noc2C)cc1CN1CCOCC1`, the GI50 is 17.9 µM (inactive) in the test on UACC-257; 30.8 µM (inactive) in the test with SF-268; 34.1 µM (inactive) in the test with NCI/ADR-RES; 32.6 µM (inactive) in the test with NCI-H23; 21.1 µM (inactive) in the test on IGROV-1; 26.5 µM in the test with HCT-15. Also, the GI50 with BT-549 was 22.2 µM (inactive); with HCT-116, 18.2 µM (inactive); in the test on SNB-19, 16.2 µM (inactive); in the test on SK-OV-3 it was 29.4 µM (inactive); in the test with RPMI-8226 it was 26.1 µM (inactive); with DU-145, 38.3 µM (inactive). Further, the GI50 was 26.3 µM (inactive) with RXF 393; 43.1 µM (inactive) with TK-10; 29 µM (inactive) in the test on NCI-H460; 21.7 µM (inactive) in the test on OVCAR-3; 17.8 µM (inactive) with NCI-H522.
Regarding `CC(=O)Oc1ccc2cc(-c3ccc(OC(C)=O)c(OC(C)=O)c3)c(=O)oc2c1`, the GI50 is 97.9 µM (inactive) in the test with UACC-257; 63.2 µM (inactive) in the test on SF-268; 40.7 µM (inactive) in the test with NCI/ADR-RES; > 100 µM (inactive) in the test on NCI-H23; greater than 100 µM in the test on HCT-15; 42.3 µM (inactive) with BT-549. Further, the GI50 with HCT-116 is 60.3 µM (inactive); with SNB-19, > 100 µM (inactive); in the test on A498 it was 34.4 µM (inactive); in the test on RPMI-8226 it was 39.3 µM (inactive); with DU-145 it was 41.6 µM (inactive); in the test on EKVX, 30.4 µM (inactive). In addition, the GI50 is 26.5 µM (inactive) with TK-10, 85.9 µM (inactive) in the test on NCI-H460, 18.4 µM (inactive) with OVCAR-3 and 44.4 µM (inactive) with NCI-H522.
Turning to `C[C@H]1CC[C@@]2(NC1)O[C@H]1C[C@H]3[C@@H]4CC[C@H]5C[C@@H](O)CC[C@]5(C)[C@H]4CC[C@]3(C)[C@H]1[C@@H]2C`, the GI50 in the test with UACC-257 was > 100 µM (inactive); with SF-268, 74.8 µM (inactive); in the test with NCI/ADR-RES it was 49.2 µM (inactive); in the test with NCI-H23 it was 85.5 µM (inactive); with IGROV-1, 71.6 µM (inactive); in the test with HCT-15, 42.7 µM. Also, the GI50 in the test on BT-549 was > 100 µM (inactive); with HCT-116, 54.8 µM (inactive); with SNB-19, > 100 µM (inactive); in the test with SK-OV-3, > 100 µM (inactive); in the test with A498, 77.8 µM (inactive); in the test with RPMI-8226 it was > 100 µM (inactive). The GI50 was > 100 µM (inactive) in the test with DU-145; > 100 µM (inactive) with EKVX; > 100 µM (inactive) in the test on TK-10; 33.4 µM (inactive) in the test on NCI-H460; 54.2 µM (inactive) in the test with OVCAR-3; 59.4 µM (inactive) in the test with NCI-H522.
Regarding `Cc1cccc(/C=C2\CCCCCC2=O)c1`, the GI50 was > 100 µM (inactive) in the test on UACC-257; > 100 µM (inactive) with SF-268; > 100 µM (inactive) with NCI-H23; > 100 µM (inactive) in the test with IGROV-1; greater than 100 µM with HCT-15; > 100 µM (inactive) with BT-549. For the same compound, the GI50 in the test on HCT-116 was > 100 µM (inactive); with SNB-19, > 100 µM (inactive); in the test on SK-OV-3 it was > 100 µM (inactive); in the test on A498, > 100 µM (inactive); in the test on RPMI-8226, 60.5 µM (inactive); in the test on DU-145, > 100 µM (inactive). Besides, the GI50 with EKVX was > 100 µM (inactive); in the test on TK-10, > 100 µM (inactive); in the test with NCI-H460, 99.8 µM (inactive); with OVCAR-3, > 100 µM (inactive); in the test with NCI-H522 it was > 100 µM (inactive).
Take `Oc1cc(-c2ccc3ccccc3c2)nc2ncccc12`: the GI50 is 12.4 µM (inactive) in the test with UACC-257; 28.1 µM (inactive) in the test on SF-268; 4.4 µM (inactive) with NCI/ADR-RES; 10.7 µM (inactive) with NCI-H23; 6.4 µM (inactive) in the test with IGROV-1; 4.18 µM in the test with HCT-15. Besides, the GI50 in the test with BT-549 was 9.93 µM (inactive); in the test on SNB-19, 17.8 µM (inactive); with SK-OV-3, 19.6 µM (inactive); in the test on A498 it was 7.23 µM (inactive); with RPMI-8226, 3.15 µM (inactive); with DU-145, 19.9 µM (inactive). Moreover, the GI50 with EKVX is 33.2 µM (inactive); in the test with TK-10, 19.8 µM (inactive); in the test on NCI-H522 it was 4.02 µM (inactive).
